In ChEMBL document CHEMBL3044845, “Synthesis and biological activity studies of furan derivatives” (2010):
Calls of active or inactive are those of the source. The rule behind the calls is not given here.

How the values were obtained:
Listeria monocytogenes [1] = assay: Antibacterial activity against Listeria monocytogenes ATCC 7644 at 5 mg/ml after 24 hr by disc diffusion method; assay type: functional; conditions: for zone of inhibition at 5000 µg/mL: ATCC 7644, 24 h, read-out: DIZ
Staphylococcus aureus [2] = assay: Antibacterial activity against Staphylococcus aureus ATCC 25923 at 5 mg/ml after 24 hr by disk diffusion method; assay type: functional; conditions: ATCC 25923, 24 h, read-out: DIZ
Bacillus subtilis [3] = assay: Antibacterial activity against Bacillus subtilis RSKK 244 at 5 mg/ml after 24 hr by disk diffusion method; assay type: functional; conditions: for zone of inhibition at 5000 µg/mL: RSKK 244, 24 h, read-out: DIZ
Micrococcus luteus [4] = assay: Antibacterial activity against Micrococcus luteus NRRLB 4375 at 5 mg/ml after 24 hr by disk diffusion method; assay type: functional; conditions: for zone of inhibition at 5000 µg/mL: NRRLB 4375, 24 h, read-out: DIZ
Escherichia coli [5] = assay: Antibacterial activity against Escherichia coli ATCC […] at 5 mg/ml after 24 hr by disk diffusion method; assay type: functional; conditions: read-out: DIZ
Priestia megaterium [6] = assay: Antibacterial activity against Bacillus megaterium ATCC 6633 at 5 mg/ml after 24 hr by disk diffusion method; assay type: functional
Salmonella enteritidis [7] = assay: Antibacterial activity against Salmonella enterica subsp. enterica serovar Enteritidis ATCC 1376 at 5 mg/ml after 24 hr by disk diffusion method; assay type: functional; conditions: for zone of inhibition at 5000 µg/mL: ATCC 1376, 24 h, read-out: DIZ
Pseudomonas aeruginosa [8] = assay: Antibacterial activity against Pseudomonas aeruginosa ATCC […] at 5 mg/ml after 24 hr by disk diffusion method; assay type: functional; conditions: for zone of inhibition at 5000 µg/mL: read-out: DIZ
Escherichia coli [9] = assay: Antibacterial activity against Escherichia coli ATCC […] after 24 hr by disk diffusion method; assay type: functional
Micrococcus luteus [10] = assay: Antibacterial activity against Micrococcus luteus NRRLB 4375 after 24 hr by disk diffusion method; assay type: functional
Pseudomonas aeruginosa [11] = assay: Antibacterial activity against Pseudomonas aeruginosa ATCC […] after 24 hr by disk diffusion method; assay type: functional, organism-based
Listeria monocytogenes [12] = assay: Antibacterial activity against Listeria monocytogenes ATCC 7644 after 24 hr by disk diffusion method; assay type: functional, organism-based
Salmonella enteritidis [13] = assay: Antibacterial activity against Salmonella enterica subsp. enterica serovar Enteritidis ATCC 1376 after 24 hr by disk diffusion method; assay type: functional, organism-based
Priestia megaterium [14] = assay: Antibacterial activity against Bacillus megaterium ATCC 6633 after 24 hr by disk diffusion method; assay type: functional
Bacillus subtilis [15] = assay: Antibacterial activity against Bacillus subtilis RSKK 244 after 24 hr by disk diffusion method; assay type: functional
Staphylococcus aureus [16] = assay: Antibacterial activity against Staphylococcus aureus ATCC 25923 after 24 hr by disk diffusion method; assay type: functional

Compound	zone of inhibition at 5000 µg/mL (Listeria monocytogenes [1]) [mm]	zone of inhibition at 5000 µg/mL (Staphylococcus aureus [2]) [mm]	zone of inhibition at 5000 µg/mL (Bacillus subtilis [3]) [mm]	zone of inhibition at 5000 µg/mL (Micrococcus luteus [4]) [mm]	zone of inhibition at 5000 µg/mL (Escherichia coli [5]) [mm]	diameter of the inhibition zone (DIZ) (Priestia megaterium [6])	zone of inhibition at 5000 µg/mL (Salmonella enteritidis [7]) [mm]	zone of inhibition at 5000 µg/mL (Pseudomonas aeruginosa [8]) [mm]	diameter of the inhibition zone (DIZ) (Micrococcus luteus [10]) [mm]	other results
CCCC1(c2ccccc2)OC(c2cc3ccccc3o2)=C(C#N)C1c1ccccc1 (stereo not given)	13	12	11	13	10	inactive	14	10	–	–
CCC1C(C#N)=C(c2ccccc2)OC1(c1ccccc1)c1ccccc1 (stereo not given)	11	13	11	13	11	inactive	13	12	–	–
CCC1C(C#N)=C(c2cccs2)OC1(c1ccccc1)c1ccccc1 (stereo not given)	–	8	–	–	10	inactive	–	–	–	diameter of the inhibition zone (DIZ) (Listeria monocytogenes [1]): inactive; diameter of the inhibition zone (DIZ) (Bacillus subtilis [3]): inactive; diameter of the inhibition zone (DIZ) (Micrococcus luteus [4]): inactive; diameter of the inhibition zone (DIZ) (Salmonella enteritidis [7]): inactive; diameter of the inhibition zone (DIZ) (Pseudomonas aeruginosa [8]): inactive
CCCC1(c2ccccc2)OC(c2ccccc2)=C(C#N)C1c1ccccc1 (stereo not given)	18	14	10	13	12	inactive	16	10	–	–
CC1(C)S[C@@H]2[C@H](NC(=O)Cc3ccccc3)C(=O)N2[C@H]1C(=O)O [PENICILLIN G]	–	–	–	–	–	–	–	–	31	diameter of the inhibition zone (DIZ) (Escherichia coli [9]): 19 mm
GENTAMICIN	–	–	–	–	–	–	–	–	–	inhibition zone (IZ) (Pseudomonas aeruginosa [11]): 16 mm; inhibition zone (IZ) (Listeria monocytogenes [12]): 10 mm; inhibition zone (IZ) (Salmonella enteritidis [13]): 9 mm
CN(C)[C@@H]1C(O)=C(C(N)=O)C(=O)[C@@]2(O)C(O)=C3C(=O)c4c(O)cccc4[C@@](C)(O)[C@H]3C[C@@H]12 [TETRACYCLINE]	–	–	–	–	–	–	–	–	9	–
CC1(C)S[C@@H]2[C@H](NC(=O)[C@H](N)c3ccccc3)C(=O)N2[C@H]1C(=O)O [AMPICILLIN]	–	–	–	–	–	–	–	–	28	diameter of the inhibition zone (DIZ) (Priestia megaterium [14]): 10 mm; diameter of the inhibition zone (DIZ) (Bacillus subtilis [15]): 15 mm; diameter of the inhibition zone (DIZ) (Staphylococcus aureus [16]): 9 mm
CCC1C(C#N)=C(c2ccco2)OC1(c1ccccc1)c1ccccc1 (stereo not given)	16	10	11	14	13	–	10	12	–	zone of inhibition at 5000 µg/mL (Priestia megaterium [6]; ATCC 6633, 24 h, read-out: DIZ): 10 mm
